tested on: Tetrahymena pyriformis; test: 48 h IGC50 (-log10 mol/L); higher = more toxic

SMILES | 48 h IGC50 (-log10 mol/L)
OCCc1cccc2ccccc12 | 3.27
C=CSc1ccccc1 | 3.42
O=[N+]([O-])c1ccc2ccccc2c1O | 4.36
O=Cc1ccc(O)c2ccccc12 | 4.05
O=[N+]([O-])CBr | 4.64
CC(C)(O)C#CC(C)(C)O | 1.42
CCCCCC1CCCC(=O)O1 (configuration not stated) | 2.92
ClC/C=C/CCl | 3.77
Brc1ccncc1.Cl | 2.44
CC(=O)c1cc[nH]c1 | 2.15
COc1cc(C=O)ccc1O | 2.97
Cc1ccnc(Cl)c1[N+](=O)[O-] | 3.29
CCCCCCC=CCO | 3.77
CCCC(O)CC (configuration not stated) | 2.15
CC(C)(Br)[N+](=O)[O-] | 4.85
CCCCc1ccco1 | 3.44
Cc1[nH]cnc1C=O | 2.07
CCC(=O)c1ccco1 | 2.23
CC(=O)c1cc(C)ccc1O | 3.31
Clc1ccc(Br)s1 | 3.75
O=[N+]([O-])c1cc(Cl)cc(Cl)c1[N+](=O)[O-] | 5.42
CCCCC(C(=O)OCC)C(=O)OCC | 3.56
CCCCCCC(O)CCC (configuration not stated) | 3.85
N#CCBr | 5.23
CCNc1ccccc1 | 3.07

SMILES | 48 h IGC50 (-log10 mol/L)
Cc1ccc(CN)cc1 | 2.99
CCCCCCCCC=O | 3.81
CC/C=C\CCCCCC=O | 3.95
S=C=NCc1cccc2ccccc12 | 6.06
CCCCCCCCCl | 3.67
Cc1cc(=O)[nH]cc1[N+](=O)[O-] | 2.83
Cc1ccc2ccccc2n1 | 3.47
Cc1ccc(Cl)c(N)c1Cl | 3.69
CCC/C=C/C(C)=O | 3.7
CC(C)COC(=O)c1ccccc1 | 3.98
CCN(CC)C(=O)CCl | 3.52
OCCCCCCc1ccccc1 | 3.87
C=CCOC(=O)CC | 2.12
Oc1cccc(Cl)c1Cl | 4.28
O=Cc1ccsc1 | 3.4
OCC#Cc1ccccc1 | 3.07
COC(=O)c1ccc(C#N)cc1 | 2.95
CCN=C=S | 4.63
CCCCCCCCCC=CCO | 5.09
CC(C)(O)Cc1ccccc1 | 2.59
CC(C)(CO)CBr | 2.54
CCCCCCCl | 3.78
Nc1cccc([N+](=O)[O-])c1 | 3.03
O/N=C\c1ccccc1 | 2.89
NCCCCc1ccccc1 | 3.62

SMILES | 48 h IGC50 (-log10 mol/L)
CCOC(=O)C(C)C(=O)OCC | 2.49
C/C=C/CCCO | 2.25
OCCCCCCCl | 2.73
CC#CC(O)CC (configuration not stated) | 2.81
CCC#CC(=O)OCC | 3.82
O=[N+]([O-])c1c(F)cc(F)c(F)c1F | 4.87
NC(=O)COc1ccccc1 | 2.27
CCCCCCc1ccc(O)cc1O | 4.8
O=[N+]([O-])c1cccc(F)c1 | 3.2
CCOC(=O)c1ccc(F)cc1 | 3.01
NCCCCCO | 1.24
CC(C)CCN | 2.42
OCC#CCO | 1.12
CCCCC#CCCO | 3.02
CC=C(C)C(=O)OCC | 2.5
O=Cc1ccc(O)cc1Cl | 3.89
CCCCCCCCCCC#CCCO | 5.38
OC(CCl)CCl | 2.21
CCCCCCC(=O)O | 2.89
Ic1ccccc1 | 3.36
C#CC(O)CCCC (configuration not stated) | 2.73
O=C1C=CCC1 | 3.64
CCCCCOC(=O)c1ccccc1 | 4.37
Cc1ccc(O)c(Br)c1 | 3.6
O=C(CBr)Oc1ccccc1 | 5.08

SMILES | 48 h IGC50 (-log10 mol/L)
Oc1ccc(O)c(O)c1 | 3.44
OC(CBr)CBr | 3.57
O=C(O)c1ccccc1Cl | 2.55
CCCCCCC(=O)OC | 3.1
OCCCCCCCCCCO | 3.22
CC=CC(=O)OCC(C)C | 2.66
Nc1cc(Cl)ccc1O | 3.78
Fc1cc(F)c(F)nc1F | 2.39
CCC#CC(C)O (configuration not stated) | 3.51
Oc1ccc(O)cc1 | 3.47
CC(C)C(=O)O | 2.67
CC(O)Cc1ccccc1 (configuration not stated) | 2.38
CCCCC(Br)C(=O)O (configuration not stated) | 3.46
CCc1ccc(C=O)cc1 | 3.29
O=Cc1cccc(Cl)c1 | 3.41
C=CC(O)CC (configuration not stated) | 1.65
OCC(c1ccccc1)c1ccccc1 | 3.65
N#Cc1ccccc1[N+](=O)[O-] | 4.08
Oc1cc(O)cc(O)c1 | 1.74
O=C(O)Cc1ccc(O)cc1 | 1.5
C=CC(=O)NCNC(=O)C=C | 2.48
CC(C)(C)c1ccc(O)cc1 | 3.91
O=Cc1cc(I)cc(I)c1O | 5.34
CCCC(C)N (configuration not stated) | 2.31
CCCCS(=O)CCCC | 2.74

SMILES | 48 h IGC50 (-log10 mol/L)
O=[N+]([O-])c1cc(Cl)c(Cl)c(Cl)c1 | 4.55
CCCCCCCC(=O)c1ccccc1 | 4.89
O=C(Cc1ccccc1)c1ccc(O)cc1 | 4.07
CCCCCC(=O)OC | 2.44
O=C(CBr)c1cccs1 | 5.22
Cc1cccc2ccccc12 | 3.74
OCc1ccccc1-c1ccccc1 | 3.82
C/C=C/C(=O)O | 2.46
COc1cc(O)cc(Cl)c1 | 3.76
CCCCCCCS | 4.02
N#Cc1ccccc1C(N)=O | 2.68
O=[N+]([O-])c1ccc(F)c(F)c1F | 4.89
CCCCCC(=O)CC(C)=O | 3.51
CC(C)(C)c1ccc(N)cc1 | 3.36
O=C(/C=C/c1ccccc1)N=C=S | 3.29
CCCc1ccccc1N | 3.08
O=Cc1cccc(O)c1O | 3.11
CCCC(CCC)C(=O)O | 3.03
C=CCOC(=O)C=CC | 2.52
Oc1ccc(O)c(-c2ccccc2)c1 | 5.01
CCCCCCC(Br)C(=O)OCC (configuration not stated) | 4.5
CCC(=O)c1ccccc1 | 2.93

From EPA's aquatic toxicity sets
